How the values were obtained:
Experiment in all cases: Radiometric kinase panel
Format in all cases: biochemical
ACVR2B = molecular target: T1, ACVR2B (Homo sapiens, UniProt Q13705)
T1 construct: either as full-length or enzymatically active fragments; purchased ProQinase GmbH (Reaction Biology)
Procedure, shortened: (§1)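 Activity was measured radiometrically from [gamma-33P]-ATP incorporation into substrate. The kinases were recombinant human GST- or His-tagged proteins, full-length or active fragments, expressed in Sf9 or E. coli. Compound in 10% DMSO was added before the enzyme/substrate mix, which started the reaction.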

CAMK4 = molecular target: T2, CAMK4 (Homo sapiens, UniProt Q16566)
T2 construct: either as full-length or enzymatically active fragments; purchased ProQinase GmbH (Reaction Biology)
T2 sequence (Q16566 whole entry, the tested form may be a part): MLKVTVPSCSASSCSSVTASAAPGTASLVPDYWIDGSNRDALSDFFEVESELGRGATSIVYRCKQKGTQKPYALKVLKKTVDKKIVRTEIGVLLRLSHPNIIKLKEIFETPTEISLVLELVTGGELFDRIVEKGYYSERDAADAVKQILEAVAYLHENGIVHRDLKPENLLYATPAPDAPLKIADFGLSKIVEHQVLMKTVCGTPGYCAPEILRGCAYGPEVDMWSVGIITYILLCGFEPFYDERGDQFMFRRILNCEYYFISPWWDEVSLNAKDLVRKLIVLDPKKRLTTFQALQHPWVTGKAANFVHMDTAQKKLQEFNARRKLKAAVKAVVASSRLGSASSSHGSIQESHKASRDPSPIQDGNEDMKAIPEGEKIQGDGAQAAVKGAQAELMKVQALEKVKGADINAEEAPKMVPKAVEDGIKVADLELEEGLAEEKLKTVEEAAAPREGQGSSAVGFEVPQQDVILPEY
Procedure, shortened: as §1

CAMKID = molecular target: T3, CAMKID (Homo sapiens, UniProt Q8IU85)
T3 construct: purchased ProQinase GmbH (Reaction Biology)
T3 sequence (Q8IU85 whole entry): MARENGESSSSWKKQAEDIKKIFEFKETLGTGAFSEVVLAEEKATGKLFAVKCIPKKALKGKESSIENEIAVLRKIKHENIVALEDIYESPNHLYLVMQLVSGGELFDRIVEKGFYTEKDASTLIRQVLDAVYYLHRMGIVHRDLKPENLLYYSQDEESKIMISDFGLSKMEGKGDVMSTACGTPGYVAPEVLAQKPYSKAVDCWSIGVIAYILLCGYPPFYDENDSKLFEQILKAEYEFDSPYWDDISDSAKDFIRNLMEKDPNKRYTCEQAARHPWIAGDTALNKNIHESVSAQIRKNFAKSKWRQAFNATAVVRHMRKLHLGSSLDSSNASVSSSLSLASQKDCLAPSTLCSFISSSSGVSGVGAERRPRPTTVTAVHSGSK
Procedure, shortened: as §1

CAMKK2 = molecular target: T4, CAMKK2 (Homo sapiens, UniProt Q96RR4)
T4 construct: either as full-length or enzymatically active fragments; purchased ProQinase GmbH (Reaction Biology); host or cells: Sf9 insect cells or E. coli (not specified per kinase)
T4 sequence (Q96RR4 whole entry, the tested form may be a part): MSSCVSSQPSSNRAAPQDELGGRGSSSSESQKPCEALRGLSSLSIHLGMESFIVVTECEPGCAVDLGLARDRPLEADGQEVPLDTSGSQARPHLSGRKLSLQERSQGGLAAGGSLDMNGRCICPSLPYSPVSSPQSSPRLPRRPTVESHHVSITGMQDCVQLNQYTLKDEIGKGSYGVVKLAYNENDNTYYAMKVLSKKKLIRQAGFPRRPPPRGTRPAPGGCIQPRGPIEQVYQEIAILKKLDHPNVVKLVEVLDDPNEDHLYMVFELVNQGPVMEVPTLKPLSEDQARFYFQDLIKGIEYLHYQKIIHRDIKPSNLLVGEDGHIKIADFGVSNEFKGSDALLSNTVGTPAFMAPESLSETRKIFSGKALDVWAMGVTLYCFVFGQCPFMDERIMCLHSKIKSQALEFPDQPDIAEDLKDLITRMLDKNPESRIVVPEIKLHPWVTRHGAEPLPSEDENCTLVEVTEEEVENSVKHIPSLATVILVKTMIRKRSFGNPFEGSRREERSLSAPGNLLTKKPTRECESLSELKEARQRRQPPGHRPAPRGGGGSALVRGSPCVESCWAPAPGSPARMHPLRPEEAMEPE
Procedure, shortened: as §1

CDK18/CycY = molecular target: T5, CDK18/CycY (Homo sapiens, UniProt Q07002)
T5 construct: either as full-length or enzymatically active fragments; purchased ProQinase GmbH (Reaction Biology)
Procedure, shortened: as §1

CDK3/CycC = molecular target: T6, CDK3/CycC (Homo sapiens, UniProt Q00526)
T6 construct: purchased ProQinase GmbH (Reaction Biology); host or cells: Sf9 insect cells or E. coli (not specified per kinase)
Procedure, shortened: as §1

CDK4/CycD2 = molecular target: T7, CDK4/CycD2 (Homo sapiens, UniProt P11802)
T7 construct: purchased ProQinase GmbH (Reaction Biology)
Procedure, shortened: as §1

CK1delta = molecular target: T8, CK1delta (Homo sapiens, UniProt P48730)
T8 construct: either as full-length or enzymatically active fragments; purchased ProQinase GmbH (Reaction Biology)
Procedure, shortened: as §1

EPHA2 = molecular target: T9, EPHA2 (Homo sapiens, UniProt P29317)
T9 construct: either as full-length or enzymatically active fragments; purchased ProQinase GmbH (Reaction Biology)
Procedure, shortened: as §1

FGFR1 = molecular target: T10, FGFR1 (Homo sapiens, UniProt P11362)
T10 construct: either as full-length or enzymatically active fragments; purchased ProQinase GmbH (Reaction Biology)
Procedure, shortened: as §1

FGFR3 = molecular target: T11, FGFR3 (Homo sapiens, UniProt P22607)
T11 construct: either as full-length or enzymatically active fragments; purchased ProQinase GmbH (Reaction Biology); host or cells: Sf9 insect cells or E. coli
T11 sequence (P22607 23-806): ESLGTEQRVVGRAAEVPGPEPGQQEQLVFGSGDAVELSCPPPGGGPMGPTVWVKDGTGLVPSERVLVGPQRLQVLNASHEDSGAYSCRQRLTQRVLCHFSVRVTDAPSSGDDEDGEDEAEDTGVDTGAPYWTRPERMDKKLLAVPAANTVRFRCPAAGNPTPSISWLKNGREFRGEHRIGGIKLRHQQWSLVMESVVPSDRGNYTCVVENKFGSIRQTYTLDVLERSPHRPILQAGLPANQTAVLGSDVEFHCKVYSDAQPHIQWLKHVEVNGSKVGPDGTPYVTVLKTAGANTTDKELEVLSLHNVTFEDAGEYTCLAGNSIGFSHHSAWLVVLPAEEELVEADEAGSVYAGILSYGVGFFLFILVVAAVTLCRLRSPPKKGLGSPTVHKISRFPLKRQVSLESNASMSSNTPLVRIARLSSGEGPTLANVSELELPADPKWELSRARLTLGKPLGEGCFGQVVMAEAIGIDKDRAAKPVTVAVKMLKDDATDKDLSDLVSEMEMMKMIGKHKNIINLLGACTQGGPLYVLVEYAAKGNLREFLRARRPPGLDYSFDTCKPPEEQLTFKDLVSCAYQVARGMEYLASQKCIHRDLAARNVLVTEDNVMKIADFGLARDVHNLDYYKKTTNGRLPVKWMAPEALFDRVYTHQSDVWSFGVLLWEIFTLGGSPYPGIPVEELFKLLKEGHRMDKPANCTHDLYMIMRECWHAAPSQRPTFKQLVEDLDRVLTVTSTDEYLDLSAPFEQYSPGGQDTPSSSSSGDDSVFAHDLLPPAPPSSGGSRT
Procedure, shortened: as §1

MAP4K2 = molecular target: T12, MAP4K2 (Homo sapiens, UniProt Q12851)
T12 construct: purchased ProQinase GmbH (Reaction Biology)
Procedure, shortened: as §1

MARK2 = molecular target: T13, MARK2 (Homo sapiens, UniProt Q7KZI7)
T13 construct: either as full-length or enzymatically active fragments; purchased ProQinase GmbH (Reaction Biology)
Procedure, shortened: as §1

MEKK2 = molecular target: T14, MEKK2 (Homo sapiens, UniProt Q9Y2U5)
T14 construct: either as full-length or enzymatically active fragments; purchased ProQinase GmbH (Reaction Biology)
Procedure, shortened: as §1

MKK4 = molecular target: T15, MKK4 (Homo sapiens, UniProt P45985)
T15 construct: either as full-length or enzymatically active fragments; purchased ProQinase GmbH (Reaction Biology)
Procedure, shortened: as §1

MYLK3 = molecular target: T16, MYLK3 (Homo sapiens, UniProt Q32MK0)
T16 construct: either as full-length or enzymatically active fragments; purchased ProQinase GmbH (Reaction Biology)
Procedure, shortened: as §1

NEK4 = molecular target: T17, NEK4 (Homo sapiens, UniProt P51957)
T17 construct: purchased ProQinase GmbH (Reaction Biology)
Procedure, shortened: as §1

NEK6 = molecular target: T18, NEK6 (Homo sapiens, UniProt Q9HC98)
T18 construct: either as full-length or enzymatically active fragments; purchased ProQinase GmbH (Reaction Biology)
Procedure, shortened: as §1

PIM3 = molecular target: T19, PIM3 (Homo sapiens, UniProt Q86V86)
T19 construct: either as full-length or enzymatically active fragments; purchased ProQinase GmbH (Reaction Biology)
Procedure, shortened: as §1

PKMzeta = molecular target: T20, PKMzeta (Homo sapiens, UniProt Q05513)
T20 construct: either as full-length or enzymatically active fragments; purchased ProQinase GmbH (Reaction Biology); host or cells: Sf9 insect cells or E. coli
T20 sequence (Q05513 184-592): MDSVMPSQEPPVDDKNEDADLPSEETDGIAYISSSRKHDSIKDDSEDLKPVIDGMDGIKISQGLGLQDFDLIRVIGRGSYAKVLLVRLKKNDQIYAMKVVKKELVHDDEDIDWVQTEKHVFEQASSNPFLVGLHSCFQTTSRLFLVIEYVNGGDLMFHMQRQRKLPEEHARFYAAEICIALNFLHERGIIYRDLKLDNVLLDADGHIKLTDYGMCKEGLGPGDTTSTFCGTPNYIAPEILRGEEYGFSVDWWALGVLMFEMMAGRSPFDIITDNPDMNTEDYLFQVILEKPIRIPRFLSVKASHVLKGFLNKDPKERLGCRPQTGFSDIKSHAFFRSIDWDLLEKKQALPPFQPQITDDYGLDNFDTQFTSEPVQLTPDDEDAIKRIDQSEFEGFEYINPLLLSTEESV
Procedure, shortened: as §1

PLK1 = molecular target: T21, PLK1 (Homo sapiens, UniProt P53350)
T21 construct: either as full-length or enzymatically active fragments; purchased ProQinase GmbH (Reaction Biology)
Procedure, shortened: as §1

PRK1 = molecular target: T22, PRK1 (Homo sapiens, UniProt Q16512)
T22 construct: purchased ProQinase GmbH (Reaction Biology)
Procedure, shortened: as §1

PRK2 = molecular target: T23, PRK2 (Homo sapiens, UniProt Q16513)
T23 construct: either as full-length or enzymatically active fragments; purchased ProQinase GmbH (Reaction Biology)
Procedure, shortened: as §1

PRKG2 = molecular target: T24, PRKG2 (Homo sapiens, UniProt Q13237)
T24 construct: either as full-length or enzymatically active fragments; purchased ProQinase GmbH (Reaction Biology)
Procedure, shortened: as §1

PYK2 = molecular target: T25, PYK2 (Homo sapiens, UniProt Q14289)
T25 construct: either as full-length or enzymatically active fragments; purchased ProQinase GmbH (Reaction Biology)
Procedure, shortened: as §1

RIPK2 = molecular target: T26, RIPK2 (Homo sapiens, UniProt O43353)
T26 construct: either as full-length or enzymatically active fragments; purchased ProQinase GmbH (Reaction Biology)
Procedure, shortened: as §1

SLK = molecular target: T27, SLK (Homo sapiens, UniProt Q9H2G2)
T27 construct: either as full-length or enzymatically active fragments; purchased ProQinase GmbH (Reaction Biology)
T27 sequence (Q9H2G2 whole entry, the tested form may be a part): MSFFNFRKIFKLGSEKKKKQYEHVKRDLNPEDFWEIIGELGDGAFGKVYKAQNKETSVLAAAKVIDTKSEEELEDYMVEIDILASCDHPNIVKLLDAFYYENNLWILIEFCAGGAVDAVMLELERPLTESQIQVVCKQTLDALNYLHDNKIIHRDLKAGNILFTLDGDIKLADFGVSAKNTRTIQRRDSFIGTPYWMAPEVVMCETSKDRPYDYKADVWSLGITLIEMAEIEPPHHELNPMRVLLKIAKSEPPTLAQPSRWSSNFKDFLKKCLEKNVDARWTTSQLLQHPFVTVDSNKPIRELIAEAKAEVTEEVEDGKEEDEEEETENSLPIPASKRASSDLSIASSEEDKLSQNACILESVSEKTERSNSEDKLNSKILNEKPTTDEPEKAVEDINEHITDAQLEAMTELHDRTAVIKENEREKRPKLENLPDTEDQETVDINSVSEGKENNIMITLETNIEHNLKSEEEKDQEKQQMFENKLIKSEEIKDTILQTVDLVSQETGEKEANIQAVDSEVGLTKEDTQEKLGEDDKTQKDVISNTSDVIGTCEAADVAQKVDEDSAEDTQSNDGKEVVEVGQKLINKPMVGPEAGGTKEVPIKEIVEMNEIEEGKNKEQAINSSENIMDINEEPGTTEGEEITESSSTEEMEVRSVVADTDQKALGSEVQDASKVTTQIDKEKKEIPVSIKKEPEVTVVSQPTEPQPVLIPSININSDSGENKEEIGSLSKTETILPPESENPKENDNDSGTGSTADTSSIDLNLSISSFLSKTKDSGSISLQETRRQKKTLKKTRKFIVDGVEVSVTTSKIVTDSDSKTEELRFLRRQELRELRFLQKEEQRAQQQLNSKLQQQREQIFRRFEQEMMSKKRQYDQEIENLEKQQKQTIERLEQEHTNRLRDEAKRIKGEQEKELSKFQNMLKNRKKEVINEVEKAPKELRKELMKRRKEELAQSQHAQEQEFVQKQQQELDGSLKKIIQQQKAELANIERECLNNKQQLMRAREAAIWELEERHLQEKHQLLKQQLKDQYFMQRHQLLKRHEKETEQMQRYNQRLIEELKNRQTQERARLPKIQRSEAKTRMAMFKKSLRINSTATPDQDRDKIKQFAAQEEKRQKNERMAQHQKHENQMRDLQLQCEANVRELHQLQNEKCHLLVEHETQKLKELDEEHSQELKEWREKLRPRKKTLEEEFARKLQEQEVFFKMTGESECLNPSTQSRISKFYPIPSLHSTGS
Procedure, shortened: as §1

TAOK3 = molecular target: T28, TAOK3 (Homo sapiens, UniProt Q9H2K8)
T28 construct: either as full-length or enzymatically active fragments; purchased ProQinase GmbH (Reaction Biology)
Procedure, shortened: as §1

TGFBR1 = molecular target: T29, TGFBR1 (Homo sapiens, UniProt P36897)
T29 construct: either as full-length or enzymatically active fragments; purchased ProQinase GmbH (Reaction Biology)
T29 sequence (P36897 34-503): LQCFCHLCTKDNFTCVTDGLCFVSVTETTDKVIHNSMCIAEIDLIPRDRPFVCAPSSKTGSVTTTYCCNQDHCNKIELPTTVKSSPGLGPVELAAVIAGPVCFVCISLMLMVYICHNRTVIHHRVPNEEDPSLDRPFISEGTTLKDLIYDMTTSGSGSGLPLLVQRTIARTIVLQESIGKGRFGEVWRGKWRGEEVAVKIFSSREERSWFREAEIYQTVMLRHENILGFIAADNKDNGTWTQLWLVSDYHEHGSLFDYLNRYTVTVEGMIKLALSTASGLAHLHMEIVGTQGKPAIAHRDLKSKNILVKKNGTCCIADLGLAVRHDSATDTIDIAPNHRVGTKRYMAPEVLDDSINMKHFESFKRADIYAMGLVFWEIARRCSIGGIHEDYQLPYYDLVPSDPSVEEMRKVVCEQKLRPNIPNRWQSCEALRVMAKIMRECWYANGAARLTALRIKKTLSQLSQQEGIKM
Procedure, shortened: as §1

TNK1 = molecular target: T30, TNK1 (Homo sapiens, UniProt Q13470)
T30 construct: either as full-length or enzymatically active fragments; purchased ProQinase GmbH (Reaction Biology)
T30 sequence (Q13470 whole entry, the tested form may be a part): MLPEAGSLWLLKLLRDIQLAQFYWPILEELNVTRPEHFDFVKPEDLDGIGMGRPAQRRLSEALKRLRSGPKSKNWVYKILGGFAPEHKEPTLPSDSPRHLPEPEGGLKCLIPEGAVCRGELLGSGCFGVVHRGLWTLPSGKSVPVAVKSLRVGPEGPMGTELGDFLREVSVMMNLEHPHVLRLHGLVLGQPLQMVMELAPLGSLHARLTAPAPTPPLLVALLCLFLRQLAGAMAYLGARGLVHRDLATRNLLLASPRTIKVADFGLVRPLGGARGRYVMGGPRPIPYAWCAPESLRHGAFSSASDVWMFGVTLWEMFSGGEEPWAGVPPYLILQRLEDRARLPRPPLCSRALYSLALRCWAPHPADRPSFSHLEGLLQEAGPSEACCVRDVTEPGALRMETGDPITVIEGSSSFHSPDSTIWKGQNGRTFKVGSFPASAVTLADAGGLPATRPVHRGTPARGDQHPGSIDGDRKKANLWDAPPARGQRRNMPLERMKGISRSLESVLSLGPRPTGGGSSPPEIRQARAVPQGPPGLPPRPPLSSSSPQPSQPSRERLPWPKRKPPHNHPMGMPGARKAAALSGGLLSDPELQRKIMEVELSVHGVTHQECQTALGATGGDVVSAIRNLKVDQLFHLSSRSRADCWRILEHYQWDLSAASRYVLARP
Procedure, shortened: as §1

p38alpha = molecular target: T31, p38alpha (Homo sapiens, UniProt Q16539)
T31 construct: either as full-length or enzymatically active fragments; purchased ProQinase GmbH (Reaction Biology)
Procedure, shortened: as §1

C=CC(=O)Nc1ccc(C(=O)N2CC[C@@H](Nc3ncc(C#N)cn3)C2)cc1 [Compound 4, (R)-N-(4-(3-((5-cyanopyrimidin-2-yl)amino)pyrrolidine-1-carbonyl)phenyl)acrylamide]
inhibition at 1 µM (ACVR2B): 6% | inhibition at 1 µM (CAMK4): 8% | inhibition at 1 µM (CAMKID): 0% | inhibition at 1 µM (CAMKK2): 9% | inhibition at 1 µM (CDK18/CycY): 20% | inhibition at 1 µM (CDK3/CycC): 1% | inhibition at 1 µM (CDK4/CycD2): 0% | inhibition at 1 µM (CK1delta): -7% | inhibition at 1 µM (EPHA2): -5% | inhibition at 1 µM (FGFR1): 3% | inhibition at 1 µM (FGFR3): -16% | inhibition at 1 µM (MAP4K2): -1% | inhibition at 1 µM (MARK2): 2% | inhibition at 1 µM (MEKK2): 8% | inhibition at 1 µM (MKK4): 4% | inhibition at 1 µM (MYLK3): 4% | inhibition at 1 µM (NEK4): -1% | inhibition at 1 µM (NEK6): 4% | inhibition at 1 µM (PIM3): 4% | inhibition at 1 µM (PKMzeta): 12% | inhibition at 1 µM (PLK1): 7% | inhibition at 1 µM (PRK1): -1% | inhibition at 1 µM (PRK2): 2% | inhibition at 1 µM (PRKG2): -6% | inhibition at 1 µM (PYK2): 4% | inhibition at 1 µM (RIPK2): 5% | inhibition at 1 µM (SLK): 21% | inhibition at 1 µM (TAOK3): 6% | inhibition at 1 µM (TGFBR1): 7% | inhibition at 1 µM (TNK1): 2% | inhibition at 1 µM (p38alpha): 3%

— US20230074545A1, “TREATMENT OF CANCER WITH CDK12/13 INHIBITORS” (Kinnate Biopharma Inc., priority 2019, published 2023)
